Laboratory results published in PubChem BioAssay (NCI).
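These data come from cells grown in 96-well plates and exposed to compound for 48 hours at five concentrations. GI50 = concentration required for 50% inhibition of growth. TGI marks complete inhibition of growth.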

Columns and labels:
Assay in all cases: NCI tumour cell line growth inhibition, 48 h
[1] = tested on: SK-MEL-5 melanoma
[2] = tested on: A549 NSCLC
[3] = tested on: T-47D breast
[4] = tested on: HT29 colon
[5] = tested on: LOX IMVI melanoma
[6] = tested on: NCI-H460 lung
[7] = tested on: MALME-3M melanoma
[8] = tested on: HCT-116 colon
[9] = tested on: NCI-H23 lung
[10] = tested on: HL-60(TB) leukemia

Structure (SMILES) | TGI [1] | TGI [2] | TGI [3] | TGI [4] | TGI [5] | TGI [6] | TGI [7] | TGI [8] | TGI [9] | GI50 [1] | GI50 [2] | GI50 [3] | GI50 [4] | GI50 [10] | TGI [10] | GI50 [5] | GI50 [7] | GI50 [8] | GI50 [9] | GI50 [6]
O=Cc1c(-c2ccccc2)[nH]c2ccccc2c1=O | 53.9 µM | > 100 µM | > 100 µM | > 100 µM | > 100 µM | > 100 µM | > 100 µM | > 100 µM | > 100 µM |  |  |  |  |  |  |  |  |  |  | 
CCN(CC)CCN1C(=O)C2C3C(=O)CC(C)(CC3C)C2C1=O (stereo unspecified) | > 100 µM | > 100 µM | > 100 µM | > 100 µM | > 100 µM |  | > 100 µM | > 100 µM | > 100 µM | > 100 µM | > 100 µM | > 100 µM | > 100 µM | > 100 µM | > 100 µM | > 100 µM | > 100 µM | > 100 µM | > 100 µM | 
Cc1ccc(/C=C/c2c(C(=O)/C=C/c3ccc(Cl)cc3)c(C)nc3ccccc23)cc1 | 3 µM | 6.85 µM |  | 14.9 µM | 2.87 µM | 3.49 µM | 3.17 µM | 2.02 µM | 3.22 µM | 1.62 µM | 2.45 µM |  | 2.05 µM | 2.12 µM | 5.76 µM | 1.53 µM | 1.74 µM | 0.526 µM | 1.38 µM | 1.73 µM
CCOc1ccc(OCC)c([P+](c2ccccc2)(c2ccccc2)c2ccccc2)c1 | 1.14 µM | 11.6 µM |  | 12.9 µM | 3.1 µM | 11.6 µM | 23.3 µM | 11.8 µM | 1.17 µM |  |  |  |  |  | 0.529 µM |  |  |  |  | 
O=C(O)c1c(Cl)c(Cl)c(Cl)c(Cl)c1C(=O)Nc1ccc2cn[nH]c2c1 | > 100 µM | > 100 µM | > 100 µM | > 100 µM |  | > 100 µM | > 100 µM | > 100 µM | > 100 µM |  |  |  |  |  |  |  |  |  |  | 
O=C(Nc1ccccc1C(F)(F)F)c1ccc(NC2=C(Cl)C(=O)N(Cc3ccccc3)C2=O)cc1 | > 100 µM | > 100 µM | > 100 µM | > 100 µM | > 100 µM | > 100 µM |  | > 100 µM | 34.2 µM | 48.7 µM | 40.5 µM | > 100 µM | > 100 µM | 2.96 µM | 17.6 µM | 18.8 µM |  | 29.4 µM | 15.6 µM | 33.2 µM
CC(=O)OCC1OC(OCc2ccccc2)C(Br)C(OC(C)=O)C1OC(C)=O (stereo unspecified) | > 100 µM | > 100 µM |  | > 100 µM | > 100 µM | > 100 µM | > 100 µM | > 100 µM | > 100 µM |  |  |  |  |  | > 100 µM |  |  |  |  | 
CC1=C(C(=O)NCc2ccccc2)C(c2ccccc2C)C(C(=O)NCc2ccccc2)=C(C)N1 | > 100 µM | > 100 µM |  | 73 µM | 35.7 µM | 45.9 µM | > 100 µM | 37.6 µM | > 93.6 µM |  |  |  |  |  | 59.3 µM |  |  |  |  | 
COc1ccc2nc(-c3ccccc3)cc(Nc3cccc(C(C)=O)c3)c2c1 | 24.3 µM | 55.6 µM | > 100 µM | > 100 µM |  | 40.7 µM | 27.7 µM | 15.4 µM | 33.1 µM | 8.89 µM | 15.3 µM | 13.4 µM | 3.67 µM |  |  |  | 12.5 µM | 3.72 µM | 14 µM | 6.38 µM
O=C1c2cccnc2C(=O)c2c1c(C(=O)NCCn1ccnc1)c1ccccn21 | 2.26 µM | 6.82 µM | 11.6 µM | 9.2 µM | 5.54 µM | 2.29 µM | 2.14 µM | 9.58 µM | 4.21 µM | 1.06 µM | 1.6 µM | 3.24 µM | 2.53 µM |  |  | 1.59 µM | 0.722 µM | 3.18 µM | 1.18 µM | 0.551 µM
Cc1cc(=O)n(-c2c(C)cccc2Cl)c(/C=C(\O)c2ccncc2)n1 | > 100 µM | > 100 µM |  | > 100 µM | > 100 µM | > 100 µM | > 100 µM | > 100 µM | > 100 µM |  |  |  |  |  | > 100 µM |  |  |  |  | 
Cc1ccc(-c2nc(N3CCNCC3)c3oc(-c4ccccc4)nc3n2)cc1 |  | 3.13 µM | 3.83 µM | 3.32 µM | 3.43 µM | 3.52 µM | 3.75 µM | 3.29 µM | 16.7 µM |  | 1.66 µM | 1.81 µM | 1.78 µM | 1.43 µM | 3.09 µM | 1.88 µM | 2.07 µM | 1.85 µM | 3.07 µM | 1.83 µM
COc1cc(/C=C/C(=O)/C=C/c2cc3ccc(Cl)cc3n(Cc3ccccc3)c2=O)ccc1O | 3.17 µM | 5.03 µM | 11.5 µM | 1.68 µM | 2.61 µM | 4.27 µM | 4.64 µM | 2.15 µM | 4.65 µM | 1.69 µM | 2.05 µM | 2.02 µM | 0.424 µM |  |  | 1.29 µM | 1.94 µM | 0.768 µM | 1.79 µM | 1.89 µM
C/C(=N\n1c(O)c(C#N)cc(C#N)c1=O)c1ccncc1 | > 100 µM | > 100 µM | > 100 µM | > 100 µM | > 100 µM | > 100 µM | > 100 µM | > 100 µM | > 100 µM | > 100 µM | > 100 µM | > 100 µM | > 100 µM |  |  | > 100 µM | > 100 µM | > 100 µM | > 100 µM | > 100 µM
O=C1c2ccccc2C(=O)c2c1ccc1c(=O)n(-c3ccccc3C(F)(F)F)nnc21 | 3.05 µM |  | 6.98 µM | > 100 µM | 4.2 µM | 5.07 µM | 2.54 µM | 10.5 µM | 3.51 µM | 1.67 µM |  | 1.86 µM | 3.43 µM | 1.76 µM | 5.48 µM | 1.59 µM | 1.27 µM | 1.85 µM | 1.34 µM | 1.97 µM
CCCCCC[C@@H](C)Nc1nc2ccccc2c2occc12 | 18 µM | 78.2 µM | 23.2 µM | 43.5 µM | 26.9 µM | > 100 µM |  | 18.1 µM | 6.97 µM | 2.89 µM | 19.4 µM | 7.24 µM | 14.5 µM | 22.4 µM | 62.9 µM | 13.9 µM |  | 4.87 µM | 1 µM | 4.19 µM
